Patent US10588280B2, “Aided delivery of plant treatment agents” (Monsanto Technology LLC, priority 2014, dated 2020)

Assays:
[1] = tested on: haploid seedlings derived from 91DUQ1 or 83IDI1; test: Example 7: serial centrifugation with colchicine at three growth stages (FIG. 4); assay type: in vivo, maize; details: 1250 ppm colchicine, submerged 50 g 3 min then unsubmerged 335 g 3 min, ear with at least four kernels
Source text: Three different growth stages and the effects on DH-related success indicators between the three life stages were compared.
F1 hybrid-derived haploid seedlings derived from either female inbred line 91DUQ1 or male inbred line 83IDI1 were germinated in soil in a greenhouse in standard maize growing conditions. To ensure that the older seedlings would fit into the centrifuge sample container, and to ensure that all seedlings received the same chemical treatments, all seedlings were subjected to a 1% paclobutrazol (PBZ) soil drench treatment at 6 days after planting, 10 ml per plant.
This population of seedlings was subdivided into 3 samples, each comprising several dozen seedlings. Half of the seedlings in each sample were derived from 91DUQ1 and the other half derived from 83IDI1. A first sample was removed from the soil at the V1-V2 growth stage (1 week after planting), a second sample removed from the soil at the V3-V4 stage (2 weeks after planting) and a third sample removed from the soil at the V4-V5 growth stage (3 weeks after planting).
Following removal from the soil, seedlings in each sample were rinsed in water to remove residual soil, then wrapped in a PCS along with several wooden rods, similar that that shown in FIG. 9, and subjected to a first submerged centrifugation in 1250 ppm colchicine at 50 g for 3 min.
Following the first, submerged centrifugation, the plant treatment solution was decanted. The seedlings, with some residual agent clinging to their surfaces, were returned to the empty centrifuge container and subjected to a unsubmerged centrifugation at 335 g for 3 min. […]
Self-pollinations were attempted with each plant that survived the treatment to produce pollen and silks and during the ensuing growth the pollination success, fertilization success and final doubling efficiency were determined within each sample. In this experiment, the doubling efficiency within each growth stage sample was calculated by dividing the number of plants that produced at least one ear comprising at least four kernels by the total number of plants treated.

[2] = tested on: haploid seedlings derived from corn inbred 91DUQ1 or 83IDI1 (SAM); test: Example 8: serial centrifugation with colchicine, unsubmerged spin at 340 g to 2000 g; assay type: in vivo; details: 1250 ppm colchicine, submerged 50 g 3 min
Source text: F1 hybrid-derived haploid seedlings derived from either female corn inbred line 91DUQ1 or male corn inbred line 83IDI1 were germinated in soil in a greenhouse in standard maize growing conditions and grown to the V1-V2 growth stage (1 week after planting). Seedlings were then removed from the soil, rinsed to remove residual soil, and partitioned into 5 samples comprising several dozen seedlings each.
This bundled PCS sample was placed into a centrifuge container, roots first. Each plant of the other four samples were individually wrapped to a PCS comprising a rod with a paraffin wrap and placed into a separate centrifuge container, one plant-PCS assembly per container, similar to that shown in FIG. 7.
Once attached to their respective PCSs and placed into their respective centrifuge containers, a solution comprising 1250 ppm colchicine was added to each container until each plant was submerged at least up until the SAM of every plant was submerged. All samples were then centrifuged with the SAMs submerged in treatment solution for 3 min at 50 g.
Following the first centrifugation, the treatment solution was drained from each centrifugation container, and then each sample was subjected to an unsubmerged spin for 3 minutes at one of six different rates, ranging from 340 g to 2000 g, as shown in Table 9.
(§1) Following the second centrifugation, the plants were removed from the centrifugation container and rinsed with water to remove any remaining colchicine solution, and then transplanted into 10-inch pots and tended in a growth room under standard maize growing conditions until they grew to maturity and flowered.
Self-pollinations were attempted with each plant that survived the treatment to produce pollen and an ear, and pollination success as determined within each sample.

[3] = tested on: haploid seedlings derived from 91DUQ1 or 83IDI1 (SAM); test: Example 9: serial centrifugation with colchicine and incubation between spins; assay type: in vivo, maize; details: submerged 100 g 3 min, unsubmerged 340 g 3 min, ear with at least four kernels
Source text: F1 hybrid-derived haploid seedlings derived from either female inbred line 91DUQ1 or male inbred line 83IDI1 were germinated in soil in a greenhouse in standard maize growing conditions and grown to the V1 growth stage (1 week after planting). Next, the seedlings were removed from the soil, rinsed with water to remove residual soil form the plants, and then divided into 4 samples comprising several seedlings of each germplasm per sample.
Each sample was then bundled in a PCS comprising an aluminum foil wrap and wooden rods for support, similar to that shown in FIG. 9. Once bundled in a PCS, each sample was contacted by a plant treatment solution comprising either 600 ppm or 800 ppm colchicine such that the SAM of each plant was entirely submerged, and then each sample was centrifuged at 100 g for 3 min with the SAMs submerged in the reserve doubling agent during centrifugation.
Following the submerged centrifugation, plants were removed from the centrifuge container and while some doubling solution from the first centrifugation remained clinging to the plants, the roots and bottom half of each stem were rinsed in water to remove any doubling agent from that end of the plant. Then each bundled sample was incubated in an enclosed, humid environment for one of the four incubation periods listed Table 8.
Following each respective incubation period, the bundled samples were removed from the humid enclosure and subjected to an unsubmerged centrifugation at 340 g for 3 min, wherein the only doubling solution that contacted the plants was that which remained on the plants from the previous submerged centrifugation, i.e. no additional doubling solution was added to the plants after the first centrifugation.
as §1, with “recovered” for “transplanted into 10-inch pots”, “light, humidity, and temperature-controlled greenhouse for several days before being transplanted to a nursery green house where they were tended” for “growth room”
Self-pollinations were attempted with each plant that survived the treatment to produce pollen and final doubling efficiencies were determined within each treatment. In this experiment, the doubling efficiency within each treatment sample was calculated by dividing the number of plants of each treatment sample that produced at least one ear comprising at least four kernels by the total number of plants subjected to that set of treatment conditions.

seedlings = details: cited from earlier work
[4] = bundled PCS, unsubmerged 340 g 3 min
[5] = individually-wrapped PCS, unsubmerged 340 g 3 min
[6] = individually-wrapped PCS, unsubmerged 500 g 3 min
[7] = individually-wrapped PCS, unsubmerged 750 g 3 min
[8] = individually-wrapped PCS, unsubmerged 1000 g 3 min
[9] = individually-wrapped PCS, unsubmerged 2000 g 3 min

## COc1cc2c(c(OC)c1OC)-c1ccc(OC)c(=O)cc1[C@@H](NC(C)=O)CC2 [colchicine]
[1]; V1-V2 growth stage
  DE: over 70%
[1]; V4-V5 growth stage
  doubling efficiency, average: ~30%
  doubling efficiency, median: 36.7%
[2]; [4]
  DE: 68.9%
  Fertilization Success: 85.0%
  Pollination success: 90.0%
  Survival Rate: 90.0%
[2]; [5]
  DE: 89.3%
  Fertilization Success: 96.2%
  Pollination success: 100.0%
  Survival Rate: 92.9%
[2]; [6]
  DE: 96.4%
  Fertilization Success: 100.0%
  Pollination success: 100.0%
  Survival Rate: 96.4%
[2]; [7]
  DE: 83.3%
  Fertilization Success: 95.2%
  Pollination success: 100.0%
  Survival Rate: 87.5%
[2]; [8]
  DE: 85.7%
  Fertilization Success: 100.0%
  Pollination success: 92.3%
  Survival Rate: 92.9%
[2]; [9]
  DE: 63.6%
  Fertilization Success: 87.5%
  Pollination success: 100.0%
  Survival Rate: 72.7%
[3]; 600 ppm colchicine, incubation 3 min
  DE: 0.41
[3]; 600 ppm colchicine, incubation 3 hrs
  DE: 0.78
[3]; 800 ppm colchicine, incubation 3 min
  DE: 0.66
[3]; 800 ppm colchicine, incubation 3 hrs
  DE: 0.79
seedlings; Eder and Chalyk (2002), procedure of Deimling et al.: 0.06% colchicine and DMSO, 12 hours, dark room, range of genotypes
  average success rate: ~50%
seedlings; Gayen et al. (1994): coleoptile tips removed, extended (6+ hours) soak, colchicine 0.1% or less
  doubling rate: 18.05%
